The values below come from ChEMBL document CHEMBL5465560, “Selectivity Literature for EUbOPEN Chemogenomic Library” (2024).

Experiment [1] deals with Activin receptor type-2B (Homo sapiens) (UniProt Q13705). Briefly: Selectivity interaction (LanthaScreen Eu Kinase Binding Assay) EUB0001632a ACVR2B. The settings on record: at 10 µM.
Experiment [2] has as its target Serine/threonine-protein kinase Nek6 (Homo sapiens) (UniProt Q9HC98). The conditions noted are these: at 10 µM.
Experiment [3] addresses Calcium/calmodulin-dependent protein kinase kinase 2 (Homo sapiens) (UniProt Q96RR4). The conditions noted are these: at 10 µM.
Experiment [4] has as its target T1, Dual specificity mitogen-activated protein kinase kinase 6 (Homo sapiens) (UniProt P52564).
T1 sequence (whole entry): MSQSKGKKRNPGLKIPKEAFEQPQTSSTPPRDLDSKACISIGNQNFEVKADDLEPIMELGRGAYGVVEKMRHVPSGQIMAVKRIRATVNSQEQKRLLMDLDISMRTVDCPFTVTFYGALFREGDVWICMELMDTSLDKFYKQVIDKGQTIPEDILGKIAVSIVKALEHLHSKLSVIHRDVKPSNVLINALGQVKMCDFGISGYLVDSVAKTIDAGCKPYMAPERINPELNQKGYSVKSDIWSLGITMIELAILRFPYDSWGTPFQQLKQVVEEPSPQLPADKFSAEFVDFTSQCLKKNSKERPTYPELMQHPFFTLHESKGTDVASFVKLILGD
The conditions noted are these: at 10 µM.

Experiment [5] concerns the target T2, Kinase suppressor of Ras 1 (Homo sapiens) (UniProt Q8IVT5).
T2 sequence (whole entry): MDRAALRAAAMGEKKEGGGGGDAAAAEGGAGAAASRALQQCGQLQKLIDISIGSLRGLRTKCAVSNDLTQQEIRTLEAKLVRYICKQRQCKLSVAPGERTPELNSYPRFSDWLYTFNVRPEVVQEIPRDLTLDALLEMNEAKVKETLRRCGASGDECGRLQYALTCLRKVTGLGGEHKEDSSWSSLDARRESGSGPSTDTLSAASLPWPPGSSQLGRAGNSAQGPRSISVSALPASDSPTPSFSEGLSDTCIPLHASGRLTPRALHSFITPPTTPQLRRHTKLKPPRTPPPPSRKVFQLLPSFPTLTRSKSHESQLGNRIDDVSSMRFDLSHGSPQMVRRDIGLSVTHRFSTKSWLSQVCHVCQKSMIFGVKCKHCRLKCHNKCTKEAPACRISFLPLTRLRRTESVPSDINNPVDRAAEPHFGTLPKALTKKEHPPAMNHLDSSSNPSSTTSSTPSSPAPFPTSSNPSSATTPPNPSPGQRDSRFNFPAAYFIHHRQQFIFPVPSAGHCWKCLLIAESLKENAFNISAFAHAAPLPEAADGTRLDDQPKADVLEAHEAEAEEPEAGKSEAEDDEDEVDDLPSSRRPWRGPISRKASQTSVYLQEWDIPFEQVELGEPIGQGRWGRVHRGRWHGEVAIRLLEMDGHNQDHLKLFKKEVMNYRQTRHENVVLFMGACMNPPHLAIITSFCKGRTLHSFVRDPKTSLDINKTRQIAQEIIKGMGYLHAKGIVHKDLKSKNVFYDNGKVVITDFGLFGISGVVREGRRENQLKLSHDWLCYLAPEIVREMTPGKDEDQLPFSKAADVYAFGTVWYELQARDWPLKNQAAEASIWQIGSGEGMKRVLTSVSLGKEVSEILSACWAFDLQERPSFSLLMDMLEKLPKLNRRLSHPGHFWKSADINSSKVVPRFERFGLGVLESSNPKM
Description: Selectivity interaction (ActivX KiNativ screen (kinase selectivity in THP-1 cell lysates)) EUB0000639a KSR1. The format is subcellular. The settings on record: lysate.

In experiment [6] the target is Ribosomal protein S6 kinase alpha-1 (Homo sapiens, UniProt Q15418). Description: Selectivity interaction (ActivX KiNativ screen (kinase selectivity in THP-1 cell lysates)) EUB0000639a RPS6KA1. The format is subcellular. The settings on record: lysate, at 1 µM.
Experiment [7] concerns the target Histone-lysine N-methyltransferase 2A (Homo sapiens) (UniProt Q03164). The settings on record: at 1 µM.
For experiment [8], the target named is Mitogen-activated protein kinase kinase kinase 1 (Homo sapiens, UniProt Q13233). Description: Selectivity interaction (KinomeScan (DiscoverX)) EUB0000045b MAP3K1.
Mitogen-activated protein kinase kinase kinase 1, sequence (Q13233 whole entry): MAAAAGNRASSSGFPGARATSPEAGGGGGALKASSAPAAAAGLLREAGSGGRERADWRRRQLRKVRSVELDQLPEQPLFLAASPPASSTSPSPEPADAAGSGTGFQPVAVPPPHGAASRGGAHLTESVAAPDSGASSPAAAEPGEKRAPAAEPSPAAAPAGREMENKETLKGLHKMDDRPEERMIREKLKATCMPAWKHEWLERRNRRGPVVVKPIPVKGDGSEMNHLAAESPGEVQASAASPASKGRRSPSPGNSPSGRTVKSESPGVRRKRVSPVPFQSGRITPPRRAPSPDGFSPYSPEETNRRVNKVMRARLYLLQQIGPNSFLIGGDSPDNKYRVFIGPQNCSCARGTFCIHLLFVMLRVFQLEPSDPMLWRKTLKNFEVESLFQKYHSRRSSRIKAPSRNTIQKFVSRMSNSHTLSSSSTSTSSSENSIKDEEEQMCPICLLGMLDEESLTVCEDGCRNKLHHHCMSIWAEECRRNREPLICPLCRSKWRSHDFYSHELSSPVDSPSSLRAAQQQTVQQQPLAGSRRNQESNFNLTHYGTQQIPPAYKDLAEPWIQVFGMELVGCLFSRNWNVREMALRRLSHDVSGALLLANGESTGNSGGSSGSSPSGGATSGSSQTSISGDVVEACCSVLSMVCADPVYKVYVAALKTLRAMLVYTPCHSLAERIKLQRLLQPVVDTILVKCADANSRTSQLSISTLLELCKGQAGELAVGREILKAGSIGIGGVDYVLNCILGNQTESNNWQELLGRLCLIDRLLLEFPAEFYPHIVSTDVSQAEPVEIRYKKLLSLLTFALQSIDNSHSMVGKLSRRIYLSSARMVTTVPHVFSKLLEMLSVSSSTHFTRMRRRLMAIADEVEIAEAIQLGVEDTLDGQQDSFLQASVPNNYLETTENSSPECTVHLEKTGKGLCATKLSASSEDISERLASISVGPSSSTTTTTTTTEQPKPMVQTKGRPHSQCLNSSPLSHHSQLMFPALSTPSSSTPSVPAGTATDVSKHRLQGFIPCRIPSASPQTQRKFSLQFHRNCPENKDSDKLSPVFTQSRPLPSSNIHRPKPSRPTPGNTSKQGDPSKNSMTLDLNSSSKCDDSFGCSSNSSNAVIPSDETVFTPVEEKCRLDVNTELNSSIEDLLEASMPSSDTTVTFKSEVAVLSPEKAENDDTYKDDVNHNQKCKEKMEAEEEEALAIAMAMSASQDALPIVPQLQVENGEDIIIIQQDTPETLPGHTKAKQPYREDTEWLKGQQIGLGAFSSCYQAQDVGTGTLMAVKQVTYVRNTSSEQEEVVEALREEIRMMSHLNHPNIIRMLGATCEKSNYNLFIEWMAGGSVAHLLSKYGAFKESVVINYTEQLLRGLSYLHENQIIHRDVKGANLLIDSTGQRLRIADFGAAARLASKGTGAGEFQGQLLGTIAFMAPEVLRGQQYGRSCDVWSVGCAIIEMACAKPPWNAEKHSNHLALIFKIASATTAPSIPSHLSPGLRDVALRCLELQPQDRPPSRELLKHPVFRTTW
The test system of experiment [9] is Epidermal growth factor receptor (Homo sapiens), P00533 [G719C]. Briefly: (§1) Selectivity interaction (Ambit KINOMEscan and KiNATiv profiling in Jurkat cells) EUB0000090b EGFR. The format is cell-based. The conditions noted are these: at 1 µM.
In experiment [10] the test system is Epidermal growth factor receptor (Homo sapiens), P00533 [L861Q]. The experiment is described as §1. It counts as cell-based. The conditions noted are these: at 1 µM.
Experiment [11] concerns Epidermal growth factor receptor (Homo sapiens), P00533 [T790M]. The experiment is described as §1. The settings on record: at 1 µM. The format is cell-based.
Epidermal growth factor receptor (Homo sapiens), P00533 [T790M], sequence (P00533 whole entry T790M): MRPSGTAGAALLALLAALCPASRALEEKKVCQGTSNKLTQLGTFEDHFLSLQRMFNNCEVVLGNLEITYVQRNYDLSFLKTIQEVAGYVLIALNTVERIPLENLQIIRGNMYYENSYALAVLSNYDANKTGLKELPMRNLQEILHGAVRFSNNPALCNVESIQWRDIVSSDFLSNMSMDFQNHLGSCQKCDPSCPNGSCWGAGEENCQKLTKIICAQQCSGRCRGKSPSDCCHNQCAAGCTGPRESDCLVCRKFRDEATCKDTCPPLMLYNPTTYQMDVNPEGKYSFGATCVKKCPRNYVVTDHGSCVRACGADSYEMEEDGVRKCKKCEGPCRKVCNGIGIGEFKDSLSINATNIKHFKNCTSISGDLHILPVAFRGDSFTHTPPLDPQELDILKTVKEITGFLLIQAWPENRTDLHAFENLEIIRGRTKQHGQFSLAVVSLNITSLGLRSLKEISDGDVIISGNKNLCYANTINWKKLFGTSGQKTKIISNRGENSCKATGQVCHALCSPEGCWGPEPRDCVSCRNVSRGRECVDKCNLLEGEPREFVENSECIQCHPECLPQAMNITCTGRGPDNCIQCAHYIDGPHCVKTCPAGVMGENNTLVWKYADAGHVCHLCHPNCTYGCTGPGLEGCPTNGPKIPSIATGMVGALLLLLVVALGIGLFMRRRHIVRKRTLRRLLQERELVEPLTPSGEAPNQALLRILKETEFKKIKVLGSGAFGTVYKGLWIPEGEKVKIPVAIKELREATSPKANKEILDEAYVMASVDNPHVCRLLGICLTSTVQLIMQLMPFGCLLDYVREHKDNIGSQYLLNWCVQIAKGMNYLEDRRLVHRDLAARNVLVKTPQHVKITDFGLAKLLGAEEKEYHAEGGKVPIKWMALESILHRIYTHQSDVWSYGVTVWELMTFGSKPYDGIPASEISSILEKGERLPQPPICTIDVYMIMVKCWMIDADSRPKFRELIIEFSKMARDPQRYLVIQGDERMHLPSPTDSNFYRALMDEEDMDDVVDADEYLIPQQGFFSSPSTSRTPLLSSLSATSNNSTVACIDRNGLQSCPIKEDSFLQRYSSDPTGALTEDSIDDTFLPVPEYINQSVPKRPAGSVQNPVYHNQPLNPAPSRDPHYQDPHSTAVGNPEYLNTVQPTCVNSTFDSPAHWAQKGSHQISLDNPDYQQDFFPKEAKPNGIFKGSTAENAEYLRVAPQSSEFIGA
In experiment [12] the target is Epidermal growth factor receptor (Homo sapiens, UniProt P00533). The description is as §1. It counts as cell-based. The conditions noted are these: at 1 µM.
For experiment [13], the target named is Microtubule-associated serine/threonine-protein kinase 1 (Homo sapiens) (UniProt Q9Y2H9). Briefly: Selectivity interaction (KinomeScan (DiscoverX)) EUB0001049a MAST1. The conditions noted are these: at 1 µM.
Experiment [14] has as its target Cyclin-dependent kinase 3 (Homo sapiens) (UniProt Q00526). Description: Selectivity interaction (KinomeScan (DiscoverX)) EUB0000655a CDK3. The conditions noted are these: at 10 µM.
Experiment [15] addresses Macrophage colony-stimulating factor 1 receptor (Homo sapiens) (UniProt P07333). Description: Selectivity interaction (KinomeScan (DiscoverX)) EUB0000092b CSF1R. The settings on record: at 10 µM.
The target of experiment [16] is Serine/threonine-protein kinase Nek7 (Homo sapiens) (UniProt Q8TDX7). Briefly: Selectivity interaction (KinomeScan (DiscoverX)) EUB0000092b NEK7. The conditions noted are these: at 10 µM.
Serine/threonine-protein kinase Nek7 (Homo sapiens), sequence (Q8TDX7 whole entry, looked up): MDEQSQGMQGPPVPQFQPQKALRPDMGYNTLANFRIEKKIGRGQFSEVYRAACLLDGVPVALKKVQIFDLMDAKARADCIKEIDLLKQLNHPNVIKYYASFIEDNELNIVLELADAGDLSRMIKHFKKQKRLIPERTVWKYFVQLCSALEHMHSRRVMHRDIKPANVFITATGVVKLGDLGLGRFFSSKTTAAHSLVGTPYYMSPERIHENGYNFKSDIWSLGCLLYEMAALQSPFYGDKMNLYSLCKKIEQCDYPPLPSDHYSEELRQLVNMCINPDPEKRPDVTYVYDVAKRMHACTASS
Experiment [17] deals with T3, Protein kinase C iota type (Homo sapiens) (UniProt P41743).
T3 sequence (whole entry): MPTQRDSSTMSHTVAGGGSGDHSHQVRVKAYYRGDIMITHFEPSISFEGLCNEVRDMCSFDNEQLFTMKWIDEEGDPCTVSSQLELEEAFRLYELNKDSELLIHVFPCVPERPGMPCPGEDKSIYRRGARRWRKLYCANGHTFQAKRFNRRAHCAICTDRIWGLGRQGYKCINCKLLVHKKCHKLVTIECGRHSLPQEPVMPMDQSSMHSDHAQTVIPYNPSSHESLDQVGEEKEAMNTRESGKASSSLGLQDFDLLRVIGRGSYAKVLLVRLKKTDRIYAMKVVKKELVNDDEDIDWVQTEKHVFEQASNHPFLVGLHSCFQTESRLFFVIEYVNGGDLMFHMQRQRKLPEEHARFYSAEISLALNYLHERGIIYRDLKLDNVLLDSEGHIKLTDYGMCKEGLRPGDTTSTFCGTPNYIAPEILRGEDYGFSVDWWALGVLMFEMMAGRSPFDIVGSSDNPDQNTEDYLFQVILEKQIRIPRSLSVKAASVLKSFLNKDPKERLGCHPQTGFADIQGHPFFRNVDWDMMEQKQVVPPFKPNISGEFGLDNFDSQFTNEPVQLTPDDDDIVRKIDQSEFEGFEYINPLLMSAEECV
Description: Selectivity interaction (KinomeScan (DiscoverX)) EUB0000092b PRKCI. The conditions noted are these: at 10 µM.

Macrophage colony-stimulating factor 1 receptor (Homo sapiens), sequence (P07333 whole entry): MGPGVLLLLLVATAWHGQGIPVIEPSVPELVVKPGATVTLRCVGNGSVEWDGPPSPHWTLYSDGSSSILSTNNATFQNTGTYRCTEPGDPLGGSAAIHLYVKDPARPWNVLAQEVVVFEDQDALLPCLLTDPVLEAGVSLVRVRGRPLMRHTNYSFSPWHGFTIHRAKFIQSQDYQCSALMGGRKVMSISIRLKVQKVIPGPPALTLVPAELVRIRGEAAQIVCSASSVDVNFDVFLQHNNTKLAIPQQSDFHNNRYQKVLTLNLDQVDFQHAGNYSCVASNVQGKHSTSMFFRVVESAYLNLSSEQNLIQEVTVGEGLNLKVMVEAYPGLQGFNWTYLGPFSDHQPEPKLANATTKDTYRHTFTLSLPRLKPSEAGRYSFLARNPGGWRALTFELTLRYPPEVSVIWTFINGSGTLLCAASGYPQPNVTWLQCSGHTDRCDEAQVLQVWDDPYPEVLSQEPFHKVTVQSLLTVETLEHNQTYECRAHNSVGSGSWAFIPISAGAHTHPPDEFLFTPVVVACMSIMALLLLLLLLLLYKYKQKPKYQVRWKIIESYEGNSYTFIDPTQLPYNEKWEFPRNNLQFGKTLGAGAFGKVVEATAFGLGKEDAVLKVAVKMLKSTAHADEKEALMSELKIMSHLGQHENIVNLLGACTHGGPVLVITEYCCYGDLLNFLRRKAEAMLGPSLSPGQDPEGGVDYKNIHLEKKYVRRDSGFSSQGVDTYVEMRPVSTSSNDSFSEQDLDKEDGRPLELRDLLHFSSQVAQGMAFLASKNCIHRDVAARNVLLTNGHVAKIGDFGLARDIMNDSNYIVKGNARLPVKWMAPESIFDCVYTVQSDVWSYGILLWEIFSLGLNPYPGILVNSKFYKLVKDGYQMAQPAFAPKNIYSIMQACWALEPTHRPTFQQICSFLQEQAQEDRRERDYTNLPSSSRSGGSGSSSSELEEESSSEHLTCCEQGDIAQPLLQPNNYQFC
Serine/threonine-protein kinase Nek6 (Homo sapiens), sequence (Q9HC98 whole entry): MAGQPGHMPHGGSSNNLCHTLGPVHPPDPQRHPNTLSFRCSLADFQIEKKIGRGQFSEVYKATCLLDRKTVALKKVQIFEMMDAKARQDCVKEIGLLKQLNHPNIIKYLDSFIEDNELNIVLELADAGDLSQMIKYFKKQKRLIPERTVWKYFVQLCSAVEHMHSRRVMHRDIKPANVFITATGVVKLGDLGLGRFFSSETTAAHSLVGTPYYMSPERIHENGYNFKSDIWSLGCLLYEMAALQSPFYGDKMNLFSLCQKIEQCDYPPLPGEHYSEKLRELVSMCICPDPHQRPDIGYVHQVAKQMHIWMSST
Activin receptor type-2B (Homo sapiens), sequence (Q13705 whole entry): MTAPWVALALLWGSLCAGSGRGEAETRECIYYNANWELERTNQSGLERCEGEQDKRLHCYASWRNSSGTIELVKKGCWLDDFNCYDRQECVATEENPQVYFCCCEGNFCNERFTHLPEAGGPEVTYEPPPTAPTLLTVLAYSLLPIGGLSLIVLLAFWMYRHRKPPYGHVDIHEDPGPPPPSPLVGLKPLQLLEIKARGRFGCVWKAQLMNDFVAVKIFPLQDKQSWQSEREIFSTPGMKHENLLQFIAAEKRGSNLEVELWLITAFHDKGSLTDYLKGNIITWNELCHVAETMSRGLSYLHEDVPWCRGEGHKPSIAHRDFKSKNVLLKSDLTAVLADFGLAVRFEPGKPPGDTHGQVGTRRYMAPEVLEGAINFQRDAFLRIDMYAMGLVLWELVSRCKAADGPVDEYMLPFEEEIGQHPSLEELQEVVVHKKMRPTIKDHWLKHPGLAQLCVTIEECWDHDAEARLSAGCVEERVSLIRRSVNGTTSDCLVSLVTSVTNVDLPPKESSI

Take `Cn1cc(-n2cnc3c(NCc4nc5cc(Cl)c(Cl)cc5[nH]4)nc(N4CCOCC4)nc32)cn1`: the % of inhibition in [1] was -21.2%.

On to `CCN(CC)CCCCNc1ncc2cc(-c3cc(OC)cc(OC)c3)c(NC(=O)NC(C)(C)C)nc2n1`, for which the % of control in [2] is 100%.

Take `Cc1cc([C@@H](C)Nc2ccccc2C(=O)O)c2nc(N3CCOCC3)cc(=O)n2c1` [AZD-6482]: the % of control in experiment [3] amounted to 100%; in experiment [4], 92%.

As for `CC[C@@H]1[C@H](F)C(=O)N[C@@H]1COc1nccc2cc(C(N)=O)c(OC)cc12` [ZIMLOVISERTIB], the % of inhibition in experiment [5] (at 0.01 µM) was 2.4%; in experiment [5] (at 0.04 µM), -6.6%; in experiment [5] (at 0.2 µM) it was -8.6%; in experiment [5] (at 1 µM) it was -32.8%; in experiment [5] (at 5 µM) it was -57.9%; in [6], -3.5%.

`CNCCN1CCC(c2cc(CN(C)C(=O)c3cccc(Oc4ccccc4)c3)ccn2)CC1`: the % activity in experiment [7] is > 90%.

On to `C=CC(=O)Nc1cc(-n2c(=O)ccc3cnc4ccc(-c5ccc(NS(C)(=O)=O)cc5)cc4c32)ccc1C`, for which the % of control in experiment [8] (at 1 µM) and in experiment [8] (at 10 µM) was 100% in each case.

`CN(C)C/C=C/C(=O)Nc1ccc(C(=O)N2CCCC(Nc3ncc(Cl)c(-c4c[nH]c5ccccc45)n3)C2)cc1` (configuration not stated): the % of control in experiment [9] worked out at 88%; in experiment [10] it was 71%; in experiment [11], 99%; in experiment [12], 99%.

Turning to `COc1cc(Nc2nc(C)cc(-c3cnn4nc(OC)ccc34)n2)cc(C(F)(F)F)c1`, in [13], the % of control was 100%.

For `CN(C)CCOc1ccc(-c2nc(-c3ccncc3)c(-c3ccc4c(c3)CC/C4=N\O)[nH]2)cc1`, the % of control in [14] was found to be 98%.

Take `CCC(=O)N1CCN(c2ccc(-n3c(=O)ccc4cnc5ccc(-c6cnc7ccccc7c6)cc5c43)cc2C(F)(F)F)CC1`: the values for the % of control in experiment [15], in experiment [16] and in experiment [17] were 24%, 90% and 85%, respectively.
